US20140004209A1, “AUTOPHAGY INDUCER AND INHIBITOR COMBINATION THERAPY FOR THE TREATMENT OF NEOPLASMS” (GENENTECH, INC., priority 2010, published 2014)
Entries after “also recorded” stand apart in the source; their conditions may differ. Read-outs that look alike come from different tables or passages of the source.

Assays:
PC3 cells [1] = assay: PC3 cell viability and cell death (PI exclusion, annexin V, caspase-3/7); format: cell-based, human; conditions: 4 μM II-4, 10 μM CQ, 0.5% FBS, 10 d
Method: (§1) Cell viability and cell cycle analysis. Cell number and viability was measured using trypan blue exclusion assay using a Vi-Cell Analyzer (Beckman Coulter), or labeled with 1 μg/ml PI in PBS/1% BSA followed by cytofluorometric analysis with a fluorescence-activated cell sorter (FACS) (Becton Dickinson). FITC-conjugated Annexin V was used for the assessment of phosphatidylserine exposure by FACS analysis. Caspase activation was analyzed using a Caspase-Glo 3/7 Assay kit (Promega). For cell cycle analysis, cells were fixed with drop-wise addition of chilled 70% ethanol, washed with PBS and resuspended in staining solution containing 50 μg/ml PI and 60 units of RNAse A. DNA content was analyzed by flow cytometry using the FlowJo and ModFit software (Becton Dickinson).

PC3 cells [2] = assay: Time-lapse microscopy of PC3 cells; format: cell-based, human; conditions: 5% FBS
Method: Time-lapse video microscopy: Cells cultured in 24-well plates were imaged on an Olympus IX81 inverted microscope under environmental control (37° C. and 5% CO2) for 3 days. Imaging started 6 hours after the addition of the compounds and was taken at 1-hour intervals.

PC3 cells [3] = assay: Immunoblot of LAMP1, cathepsin D and p62 in PC3 cells; format: cell-based, human
Text: Western blot analysis, immunofluorescence, 1HC and TUNEL assay: For Western blot analysis, total protein lysates were subjected to SDS-PAGE and transferred to nitrocellulose. Antibodies used were: anti-Akt1, anti-Akt2, anti-Akt3, anti-total-Akt, anti-p-Akt (Ser473), anti-p-Akt (Thr308), anti-p-S6 (Ser235/236), anti-PARP and anti-cleaved caspase-3 (Cell Signaling Technology); anti-p-PRAS40 (Invitrogen); anti-p27^Kip1 (Santa Cruz Biotechnology); anti-LC3 (Novus); anti-LAMP2 and anti-Cathepsin D (BD Biosciences); and anti-GAPDH (Advanced Immunochemical Inc.). […] Detection and quantification were performed using an Odyssey infrared scanner (LICOR) using the manufacturer's software. For immunofluorescence staining, cells were fixed in 3% paraformaldehyde and permeabilized with 0.01% digitonin in PBS, followed by a rabbit polyclonal anti-LC3 (Abgent) primary antibody detected with a cy3-conjugated anti-rabbit secondary antibody (Jackson Immunoresearch). For IHC, formalin-fixed, paraffin-embedded specimens were collected. 5-μm-thick paraffin-embedded sections were stained using an anti-Ki-67 (MIB-1, DakoCytomation) antibody with the Dako ARK kit (Dako Corporation). Tissues were counterstained with haematoxylin, dehydrated, and mounted. In all cases, antigen retrieval was performed with the Dako Target Retrieval Kit as per manufacturer's instructions. For TUNEL assay, formalin-fixed, paraffin-embedded sections were stained using an in situ cell death detection kit (POD; Roche Diagnostic) according to the manufacturer's instructions.
Because autophagy is a key function of the lysosomal compartment (Terman, A., B. Gustafsson, and U. T. Brunk, (2006), The lysosomal-mitochondrial axis theory of postmitotic aging and cell death. Chem Biol Interact. 163:29-37), we examined the lysosomal marker LAMPI and cathepsin D, the predominant lysosomal aspartic protease, by immunoblotting (FIG. 6, B and C). […] Cathepsin D is synthesized as a 43-kD preprocathepsin D that is cleaved cotranslationally and glycosylated to form a 46-kD procathepsin D, which is targeted to lysosomes yielding an intermediate that is further cleaved into a mature enzyme consisting of a 15-kD light chain and a 28-kD heavy chain.

PC3 cells [4] = assay: Mitochondrial superoxide (MitoSOX red) and cellular ROS in PC3 cells; format: cell-based, human
Method: (B) PC3 cells treated as in A were stained with the Image-iT LIVE green ROS Detection kit and examined by fluorescence microscopy at 24 h. […] (C) Quantification of MitoSOX red and ROS green fluorescence intensities by flow cytometry at 24 h. Cells were treated as in A and B. Error bars represent SEM (n=3).
Because mitochondria are the primary intracellular source of superoxide (O2^−) generation, we analyzed O2^− production using MitoSOX red, an O2^− indicator that accumulates in the mitochondria as a function of membrane potential and fluoresces upon oxidation and subsequent binding to DNA.

PTEN−/− and PTEN+/+ MEFs = assay: Viability of PTEN−/− and PTEN+/+ MEFs (PI exclusion); format: cell-based, mouse; conditions: 5 μM each, 1% FBS
Method: MEFs were treated with 5 μM each of II-4 and CQ under 1% FBS, and cell viability was determined at days 0, 2, and 3 by PI exclusion. Error bars represent SEM (n=3). (B) Mean tumor volumes of PC3 xenograft tumors treated daily with vehicle (Veh), Dox only, CQ only, or both Dox and CQ over a 28-d period. The vehicle and vehicle+CQ groups were followed for up to 18 d before terminated because of weight loss from the tumor burdens. Error bars represent SEM (n=10 tumors in each cohort). (C) Scatterplot of the tumor volumes in the Dox only and Dox+CQ groups on day 28 (P=0.05). Horizontal bars indicate mean tumor volumes. Numbers of tumors with complete remission (CR, dashed line) are indicated for each group. […]
as §1, with “FITC-conjugated Annexin V was used for the assessment of phosphatidylserine exposure by FACS analysis.” left out

O=c1[nH]c2ccccc2n1C1CCN(Cc2ccc(-c3nc4cc5nc[nH]c5cc4nc3-c3ccccc3)cc2)CC1 [II-4, 1-(1-(4-(7-phenyl-1H-imidazo[4,5-g]quinoxalin-6-yl)benzyl)piperidin-4-yl)-1H-benzo[d]imidazol-2 (3H)-one] was tested, and the “cell viability, II-4 (Akti-1/2) in combination with CQ” value (PC3 cells [1]) was “CQ accelerated cell death in combination with II-4; also recorded: rapid drop in cell viability with complete cell death observed by day 10”, the “cell viability, II-4 (Akti-1/2) in combination with CQ” value (PC3 cells [1]; listed as Akti-1/2) was “significantly accelerated death rate” and the “cell morphology, II-4 and CQ” value (PC3 cells [2]; 10 μM II-4, 10 μM CQ) was “cell shrinkage and plasma membrane rupture was observed within 48 h”. For the same compound, the “cell division and morphology, agent alone” value (PC3 cells [2]; 10 μM, 3 d) was “near-complete inhibition of cell division without overt cell death”, the “cathepsin D forms, II-4 and CQ” value (PC3 cells [3]) was “the precursor forms of cathepsin D accumulated to even higher levels than either alone, whereas the mature 28-kD chain decreased gradually” and the p62 level (PC3 cells [3]) was “reduced the level of p62”. The LAMP1 levels (PC3 cells [3]; agent alone) was “increase in LAMP1 levels”, the p62 level (PC3 cells [3]; listed as Akti) was “caused a reduction in p62 levels” and the “MitoSOX fluorescence, agent alone” value (PC3 cells [4]) was “increased MitoSOX fluorescence within 6 h”. For the same compound, the “cellular ROS levels, II-4 (Akti-1/2) with CQ” value (PC3 cells [4]) was “cotreatment with CQ caused a prolonged increase in ROS levels”, the “cellular ROS signal, agent alone” value (PC3 cells [4]) was “attenuated within 48 h” and the “MitoSOX fluorescence, II-4 and CQ” value (PC3 cells [4]; 3 μM II-4, 10 μM CQ) was “significant increase in fluorescence intensity”. The “cellular ROS levels, II-4 (Akti-1/2) with CQ” value (PC3 cells [4]; listed as Akti-1/2) was “caused a prolonged increase in vacuolar fluorescence”, the “cellular ROS signal, agent alone” value (PC3 cells [4]; listed as Akti-1/2) was “first induced a homogeneous increase in ROS level, but by 48 hours the fluorescence became significantly reduced” and the “sensitivity of PTEN−/− vs PTEN+/+ MEFs to combined II-4 and CQ” value (PTEN−/− and PTEN+/+ MEFs) was “significantly more sensitive”.
